According to ChEMBL document CHEMBL5500360, “Discovery of N-(4-((6-(3,5- Dimethoxyphenyl)-9H-purine derivatives as irreversible covalent FGFR inhibitors” (Eur J Med Chem, 2024):

How the values were obtained:
MDA-MB-435 = assay: cells; settings: Homo sapiens, MDA-MB-435, 72 h
Description: Antiproliferative activity against human MDA-MB-435 cells assessed as inhibition of cell growth incubated for 72 hrs by MTT assay

MDA-MB-231 = assay: cells; settings: Homo sapiens, MDA-MB-231, 72 h
KYSE-150 cell line = assay: cells; settings: Homo sapiens, KYSE-150, 72 h
Description: Antiproliferative activity against human KYSE-150 cells assessed as inhibition of cell growth incubated for 72 hrs by MTT assay

HepG2 = assay: cells; settings: Homo sapiens, HepG2, 72 h
in vitro = settings: human
Description: Cytotoxicity against HUVEC cells assessed as inhibition of cell growth incubated for 72 hrs by MTT assay

[1] = Metabolic stability in human liver microsomes assessed as parent compound remaining at 1 uM measured after 5 mins by LC-MS/MS analysis; format: ADME, Microsome; settings: read-out: Stability
[2] = Metabolic stability in human liver microsomes assessed as parent compound remaining at 1 uM measured after 15 mins by LC-MS/MS analysis; format: ADME, Microsome; settings: read-out: Stability
[3] = Metabolic stability in human liver microsomes assessed as parent compound remaining at 1 uM measured after 30 mins by LC-MS/MS analysis; format: ADME, Microsome; settings: read-out: Stability
[4] = Metabolic stability in human liver microsomes assessed as parent compound remaining at 1 uM measured after 45 mins by LC-MS/MS analysis; format: ADME, Microsome; settings: read-out: Stability
[5] = Metabolic stability in rat liver microsomes assessed as parent compound remaining at 1 uM measured after 5 mins by LC-MS/MS analysis; format: ADME, Microsome; settings: read-out: Stability
[6] = Metabolic stability in rat liver microsomes assessed as parent compound remaining at 1 uM measured after 15 mins by LC-MS/MS analysis; format: ADME, Microsome; settings: read-out: Stability
[7] = Metabolic stability in rat liver microsomes assessed as parent compound remaining at 1 uM measured after 30 mins by LC-MS/MS analysis; format: ADME, Microsome; settings: read-out: Stability
[8] = Metabolic stability in rat liver microsomes assessed as parent compound remaining at 1 uM measured after 45 mins by LC-MS/MS analysis; format: ADME, Microsome; settings: read-out: Stability
[9] = Metabolic stability in mouse liver microsomes assessed as parent compound remaining at 1 uM measured after 5 mins by LC-MS/MS analysis; format: ADME, Microsome; settings: read-out: Stability
[10] = Metabolic stability in mouse liver microsomes assessed as parent compound remaining at 1 uM measured after 15 mins by LC-MS/MS analysis; format: ADME, Microsome; settings: read-out: Stability
[11] = Metabolic stability in mouse liver microsomes assessed as parent compound remaining at 1 uM measured after 30 mins by LC-MS/MS analysis; format: ADME, Microsome; settings: read-out: Stability
[12] = Metabolic stability in mouse liver microsomes assessed as parent compound remaining at 1 uM measured after 45 mins by LC-MS/MS analysis; format: ADME, Microsome; settings: read-out: Stability
[13] = Metabolic stability in human liver microsomes assessed as half-life at 1 uM incubated for 45 mins by LC-MS/MS analysis; format: ADME, Microsome
[14] = Metabolic stability in human liver microsomes assessed as intrinsic clearance at 1 uM incubated for 45 mins by LC-MS/MS analysis; format: ADME, Microsome; settings: read-out: CLH
[15] = Metabolic stability in rat liver microsomes assessed as half-life at 1 uM incubated for 45 mins by LC-MS/MS analysis; format: ADME, Microsome
[16] = Metabolic stability in rat liver microsomes assessed as intrinsic clearance at 1 uM incubated for 45 mins by LC-MS/MS analysis; format: ADME, Microsome; settings: read-out: CLH
[17] = Metabolic stability in mouse liver microsomes assessed as half-life at 1 uM incubated for 45 mins by LC-MS/MS analysis; format: ADME, Microsome
[18] = Metabolic stability in mouse liver microsomes assessed as intrinsic clearance at 1 uM incubated for 45 mins by LC-MS/MS analysis; format: ADME, Microsome; settings: read-out: CLH

Structure (SMILES) | IC50 (MDA-MB-435) [µM] | IC50 (MDA-MB-231) [µM] | IC50 (KYSE-150 cell line) [µM] | IC50 (HepG2) [µM] | IC50 at 72 h (in vitro; HUVEC cells) [µM] | other results
CC(C)=CC(=O)Nc1ccc(Cn2cnc3c(Cl)ncnc32)cc1 | 30.1 | 7.36 | 13.3 | 19.1 | 77.1 | 
O=C(c1ccc(F)cc1)C1CCN(CCn2c(=O)[nH]c3ccccc3c2=O)CC1 [KETANSERIN] |  |  |  |  |  | remaining at 5 min, 1 µM [1]: 84.7%; remaining at 0.25 h, 1 µM [2]: 68.5%; remaining at 0.5 h, 1 µM [3]: 55.1%; remaining at 0.75 h, 1 µM [4]: 45.9%; remaining at 5 min, 1 µM [5]: 76.3%; remaining at 0.25 h, 1 µM [6]: 48.5%; remaining at 0.5 h, 1 µM [7]: 24.5%; remaining at 0.75 h, 1 µM [8]: 14.1%; remaining at 5 min, 1 µM [9]: 70.3%; remaining at 0.25 h, 1 µM [10]: 38.3%; remaining at 0.5 h, 1 µM [11]: 18.3%; remaining at 0.75 h, 1 µM [12]: 8.57%; half-life at 1 µM [13]: 28.6 min; CLint scaled at 1 µM [14]: 60.8 mL/min/kg; half-life at 1 µM [15]: 13.2 min; CLint scaled at 1 µM [16]: 188 mL/min/kg; half-life at 1 µM [17]: 9.35 min; CLint scaled at 1 µM [18]: 584 mL/min/kg
CCC(=O)Nc1ccc(Cn2cnc3c(Cl)ncnc32)cc1 | 30.1 | 7.93 | 13.3 | 28.5 | 80.1 | 
C=CC(=O)Nc1cc(Cn2nnc3c(C(=O)NCC(F)F)cccc32)ccc1F | 27.9 | 29.2 | 16.2 | 19.9 | 50.9 | 
C=CC(=O)Nc1cc(Cn2nnc3c(C(=O)OC)cccc32)ccc1F | 32.5 | 20.3 | 13.6 | 30.5 | 64.2 | 
C=CC(=O)Nc1cc(Cn2ccc3c(Cl)ncnc32)ccc1F | 27.1 | 29.3 | 7.68 | 26.8 | 60.3 | 
C=CC(=O)Nc1cc(Cn2ccc3c(Cl)ccnc32)ccc1F | 27.2 | 27.2 | 23 | 23.7 | 54.4 | 
CC(Cl)C(=O)Nc1ccc(Cn2cnc3c(Cl)ncnc32)cc1 (stereo unspecified) | 32.2 | 9.87 | 9.46 | 17.8 | 81.8 | 
C=C(C)C(=O)Nc1ccc(Cn2cnc3c(Cl)ncnc32)cc1 | 29.4 | 66.3 | 26 | 48.4 | 80.9 | 
CC(C)C(=O)Nc1ccc(Cn2cnc3c(Cl)ncnc32)cc1 | 29.4 | 7.17 | 18.9 | 27.6 | 79.6 | 
C=CC(=O)Nc1cc(Cn2nnc3c(C(=O)NCC4CC(F)(F)C4)cccc32)ccc1F | 27 | 10 | 6.86 | 29.6 | 46.2 | 
C=CC(=O)Nc1cc(Cn2ccc3ncnc(Cl)c32)ccc1F | 26.2 | 40.3 | 15.9 | 25.1 | 79.3 | 
C=CC(=O)Nc1ccc(C(=O)n2ncc3cccnc32)cc1 | 33.8 | 26.7 | 9.83 | 42.6 | 82.2 | 
O=C(CCl)Nc1ccc(Cn2cnc3c(Cl)ncnc32)cc1 | 26.4 | 21.2 | 12.3 | 27.3 | 64 | 
C=CC(=O)Nc1cc(Cn2ccc3cc(Br)cnc32)ccc1F | 27.4 | 37.4 | 8.23 | 28.1 | 75.5 | 
C=CC(=O)N1CC[C@@H](n2nc(C#Cc3cc(OC)cc(OC)c3)c3c(N)ncnc32)C1 | 16.3 |  | 17.6 |  |  | IC50 at 72 h (in vitro; huvec): 63.6 µM
O=C(Nc1ccc(Cn2cnc3c(Cl)ncnc32)cc1)C1CC1 | 31.6 | 9.64 | 10.6 | 27 | 81.2 | 

The next lines start with results.

IC50 (MDA-MB-435) [µM] | IC50 (MDA-MB-231) [µM] | IC50 (KYSE-150 cell line) [µM] | IC50 (HepG2) [µM] | IC50 at 72 h (in vitro; HUVEC cells) [µM] | Structure (SMILES) | other results
11.1 | 13.9 | 8.26 | 9.26 | 79.1 | C=CC(=O)Nc1ccc(Cn2cnc3c(-c4cc5ccccc5s4)ncnc32)cc1 | 
24.6 | 7.21 | 7.26 | 11.1 | 76.5 | C=CC(=O)Nc1cc(Cn2ccc3ccc(Br)cc32)ccc1F | 
20.8 | 23.8 | 23.8 | 24.2 | 57.1 | C=CC(=O)Nc1cc(Cn2cnc3cnc(Cl)nc32)ccc1F | 
5.67 | 10.1 | 3.78 | 15.7 | 71.4 | C=CC(=O)Nc1cc(Cn2cnc3c(Cl)ncnc32)ccc1F | 
10 | 29.4 | 10.1 | 40.1 | 56.1 | C=CC(=O)Nc1ccc(C(=O)n2ccc3c(Cl)ncnc32)cc1 | 
6.3 | 29.7 | 9.84 | 16.4 | 69.7 | C=CC(=O)Nc1cc(Cn2ncc3ccc(Br)cc32)ccc1F | 
12.8 | 7.22 | 11.2 | 9.34 | 81.3 | C=CC(=O)Nc1ccc(Cn2cnc3c(-c4ccccc4)ncnc32)cc1 | 
24.3 | 25.8 | 13.8 | 24.7 | 64.5 | C=CC(=O)Nc1cc(Cn2cnc3ccc(Cl)nc32)ccc1F | 
15.7 | 6.18 | 12.2 | 11.1 | 77.2 | C=CC(=O)Nc1ccc(Cn2cnc3c(-c4cccs4)ncnc32)cc1 | 
13.2 | 5.64 | 14.3 | 8.36 | 75.2 | C=CC(=O)Nc1ccc(Cn2cnc3c(-c4ccc(F)c(F)c4)ncnc32)cc1 | 
24.1 | 9.15 | 5.21 | 29.1 | 54.6 | C=CC(=O)Nc1cc(Cn2ncc3ccncc32)ccc1F | 
20.1 | 6.53 | 13.5 | 12.2 | 79.2 | C=CC(=O)Nc1ccc(Cn2cnc3c(-c4cc5ccccc5o4)ncnc32)cc1 | 
5.93 | 2.64 | 2.95 | 2.81 | 50.5 | C=CC(=O)Nc1ccc(Cn2cnc3c(Cl)ncnc32)cc1 | 
3.3 | 40 | 6.86 | 51.1 | 81 | C=CC(=O)Nc1ccc(C(=O)n2ncc3ccc(Br)cc32)cc1 | 
18.9 | 24.4 | 16.8 | 39.4 | 75.4 | C=CC(=O)Nc1ccc(C(=O)n2ccc3cc(Br)cnc32)cc1 | 
18.5 | 34.8 | 10.8 | 45 | 80.4 | C=CC(=O)Nc1ccc(C(=O)n2ccc3cc(Cl)cnc32)cc1 | 
